As usually defined, the CC50 is the concentration giving 50% cytotoxicity. As usually defined, the AUC(0-inf) is total exposure, with the tail of the curve extrapolated. For orientation: bioavailability means the share of a dose that reaches the circulation, judged against a reference dose that is usually intravenous. A higher bioavailability goes with good availability. A word on the Tmax: it is the time at which the peak concentration occurs. For orientation: Cmax means the peak of the concentration-time curve.

Results on two compounds are retold here after patent publication US9394295B2, “Antibacterial homopiperidinyl substituted 3,4-dihydro-1H-[1,8]naphthyridinones” (Janssen Sciences Ireland UC, priority 2011, dated 2016).

Values after ≈ are worked out from the molar mass of the structure shown. Like-named read-outs stand apart in the source and are kept apart here.

Data set [1] can be described thus: Cytotoxicity MTT assay (TOX HELAM). It is filed as cell-based. The conditions noted are these: human, HelaM cells, read-out: TOX HELAM (222.125) CC50. As to the method: Cytotoxicity of the compounds was evaluated using the MTT assay. Human HelaM cells grown in 96-well plates were exposed to serial dilutions of the tested compounds (final volume of 0.2 ml) and incubated for 72 hours at 37° C. and 5% CO2. Inhibitors are typically varied over the range of 25 to 0.8 μM. The final DMSO concentration in the assay is 0.5%. MTT (3-(4,5-Dimethylthiazol-2-yl)-2,5-diphenyltetrazolium bromide, a tetrazole) was added and reduced to purple formazan only in living cells. Solubilization of the formazan crystals was achieved by adding 100 μl 2-propanol. Cell viability was determined by measuring the absorbance of the reduced formazan, giving a purple color, at 540 nm and 690 nm. The absorbance measured at 690 nm was automatically subtracted from the absorbance at 540 nm, to eliminate the effects of non-specific absorption. The percent cytotoxicity achieved by the compounds was calculated according to standard methods. Cytotoxicity is reported as CC50, the concentration that causes a 50% reduction in cell viability.
The results are depicted in the table D2 below (TOX HELAM).
In general terms: Tetrazolium assays rely on reduction of a dye to a coloured formazan, in cell work by metabolically active cells.

In a further data set the test system is S. aureus ATCC 43300. In words: MIC broth microdilution (CLSI), S. aureus ATCC 43300. As to conditions: Staphylococcus aureus, ATCC 43300 / MRSA, reference strain MRSA. Format: cell-based. How it is done:
(§1) Minimum Inhibitory Concentrations (MICs) were determined in accordance with the Clinical and Laboratory Standards Institute (CLSI) methodology against aerobic bacteria (CLSI M07-A8) (see Clinical and Laboratory Standards Institute. 2009. Methods for dilution antimicrobial susceptibility tests for bacteria that grow aerobically. CLSI document M07-A8, Vol. 29, No. 2.) by the broth microdilution method with cation-adjusted Mueller-Hinton broth (CA-MHB) medium for the majority of organisms, except for Haemophilus influenza, where Haemophilis test medium (HTM) broth was used. Descriptions of the individual organisms can be found in the table. Where possible, ATCC standard strains were tested.
(§2) The inoculum density for the susceptibility testing was standardized to give a final inoculum of approximately 5×10^5 CFU/mL.
(§3) Stock solutions of the compounds were prepared in DMSO at concentrations of 1 mg/mL. Linezolid was prepared in DMSO at a concentration of 2 mg/mL. Stock solutions of all compounds were diluted into CA-MHB to give a range of two-fold dilutions, depending upon the sensitivity of the organism being tested.

The next data set has as its system S. aureus NRS120. In words: MIC broth microdilution (CLSI), S. aureus NRS120. Format: cell-based. The conditions noted are these: Staphylococcus aureus, LZD-R. How it is done:
as §1, §2, §3

A further data set has as its system E. coli tolC mutant. In words: MIC broth microdilution (CLSI), E. coli tolC mutant. It is filed as cell-based. The conditions noted are these: Escherichia coli. How it is done:
as §1, §2, §3
On the technique in general: Dilution methods test growth across graded concentrations, often in twofold steps.

For another data set, the system named is H. influenza ATCC 49247. Description: MIC broth microdilution (CLSI), H. influenza ATCC 49247. Format: cell-based. The conditions noted are these: Haemophilus influenzae, ATCC49247, HTM broth. As to the method: as §1, §2, §3
A further data set deals with M. catarrhalis ATCC 8176. In words: MIC broth microdilution (CLSI), M. catarrhalis ATCC 8176. Format: cell-based. The conditions noted are these: Moraxella catarrhalis, ATCC8176. How it is done: as §1, §2, §3
Data set [2] can be described thus: In vivo pharmacokinetic and oral bioavailability. The conditions noted are these: male Swiss mice; for half-life: read-out: Half life (t1/2) (converted). How it is done: The in vivo pharmacokinetics and oral bioavailability of the compound of the examples was/is investigated in male Swiss mice (fed) following single intravenous (i.v.) bolus and oral (p.o.) administration. For the i.v. and p.o. solution formulations, the compound was/is dissolved in a 20% HP-β-CD solution. The pH of the formulations was/is around pH 4. All i.v. formulations were isotonic.

Setting [3] is: mouse, plasma, iv, i.v. 2.5 mg/kg.
Setting [4] is: mouse, plasma, po, p.o. 10 mg/kg.

Take `O=C1CCc2cc(/C=C/C(=O)N3CCC=C(c4ccccc4)CC3)cnc2N1` [Co. No. 2]: the CC50 at 72 h in data set [1] is above 9.38 µg/mL. The MIC90 with S. aureus ATCC 43300 was determined as 0.06 µg/mL (≈ 0.161 µM); against S. aureus NRS120 it was 0.06 µg/mL (≈ 0.161 µM); in the data set with E. coli tolC mutant it was 0.25 µg/mL (≈ 0.669 µM).
On to `COc1ccc(F)cc1C1=CCCN(C(=O)/C=C/c2cnc3c(c2)CCC(=O)N3)CC1` [Co. No. 27], for which the CC50 at 72 h in data set [1] was above 10.6 µg/mL. Besides, the MIC90 in the data set with S. aureus ATCC 43300 was 0.06 µg/mL (≈ 0.142 µM); against S. aureus NRS120, 0.125 µg/mL (≈ 0.297 µM); in the data set with E. coli tolC mutant, above 8 µg/mL; against H. influenza ATCC 49247, above 8 µg/mL; against M. catarrhalis ATCC 8176, 1 µg/mL (≈ 2.37 µM). Further, in data set [2] (i.v. 2.5 mg/kg), the Vdz is reported as 1.2 L/kg. The total exposure AUC(0-inf) in data set [2] (setting [3]) was determined as 3560 ng·h/mL; in data set [2] (setting [4]) it was 12600 ng·h/mL. Also, in data set [2] (mouse, plasma, iv, i.v. 2.5 mg/kg, 20% HP-β-CD solution), the C0 is 3350 ng/mL. The figures for the half-life in data set [2] (setting [3]) and in data set [2] (setting [4]) were 1.1 h and 2 h, respectively. Besides, the clearance in data set [2] (mouse, plasma, iv, i.v. 2.5 mg/kg, read-out: Plasma clearance Cl (converted)) was 12.5 mL/min/kg. Also, in data set [2] (mouse, plasma, po, p.o. 10 mg/kg vs i.v. 2.5 mg/kg), the bioavailability worked out at 89%. Also, the Tmax in data set [2] (setting [4]) came to 0.5 h. This compound also came in with a Cmax in data set [2] (mouse, plasma, po, p.o. 10 mg/kg, 20% HP-β-CD solution) of 4640 ng/mL.
